Laboratory results: ChEMBL document CHEMBL5291721, “A preclinical secondary pharmacology resource illuminates target-adverse drug reaction associations of marketed drugs” (Nat Commun, 2023)

Key:
[1] = target: Growth hormone secretagogue receptor type 1 (Homo sapiens, UniProt Q92847)
[2] = target: D(3) dopamine receptor (Homo sapiens, UniProt P35462)
[3] = target: Vasopressin V1a receptor (Homo sapiens, UniProt P37288)
[4] = target: T1, 5-hydroxytryptamine receptor 2C (Homo sapiens, UniProt P28335)
T1 sequence (P28335 whole entry): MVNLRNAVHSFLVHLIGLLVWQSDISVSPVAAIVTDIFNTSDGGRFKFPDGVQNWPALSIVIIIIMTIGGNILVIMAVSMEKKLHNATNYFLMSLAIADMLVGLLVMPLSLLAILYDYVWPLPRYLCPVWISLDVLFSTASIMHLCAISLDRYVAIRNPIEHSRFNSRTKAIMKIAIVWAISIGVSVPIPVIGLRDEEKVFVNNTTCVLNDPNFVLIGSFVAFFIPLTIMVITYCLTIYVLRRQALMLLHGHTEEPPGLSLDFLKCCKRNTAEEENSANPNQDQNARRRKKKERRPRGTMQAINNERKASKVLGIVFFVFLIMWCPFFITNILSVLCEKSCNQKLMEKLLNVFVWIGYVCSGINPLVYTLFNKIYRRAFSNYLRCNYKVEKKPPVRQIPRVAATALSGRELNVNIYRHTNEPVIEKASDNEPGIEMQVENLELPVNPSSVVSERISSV

[5] = target: 5-hydroxytryptamine receptor 2B (Homo sapiens, UniProt P41595); assay type: functional, cell-based
[6] = target: T2, Alpha-2C adrenergic receptor (Homo sapiens, UniProt P18825); assay type: functional
T2 sequence (P18825 whole entry): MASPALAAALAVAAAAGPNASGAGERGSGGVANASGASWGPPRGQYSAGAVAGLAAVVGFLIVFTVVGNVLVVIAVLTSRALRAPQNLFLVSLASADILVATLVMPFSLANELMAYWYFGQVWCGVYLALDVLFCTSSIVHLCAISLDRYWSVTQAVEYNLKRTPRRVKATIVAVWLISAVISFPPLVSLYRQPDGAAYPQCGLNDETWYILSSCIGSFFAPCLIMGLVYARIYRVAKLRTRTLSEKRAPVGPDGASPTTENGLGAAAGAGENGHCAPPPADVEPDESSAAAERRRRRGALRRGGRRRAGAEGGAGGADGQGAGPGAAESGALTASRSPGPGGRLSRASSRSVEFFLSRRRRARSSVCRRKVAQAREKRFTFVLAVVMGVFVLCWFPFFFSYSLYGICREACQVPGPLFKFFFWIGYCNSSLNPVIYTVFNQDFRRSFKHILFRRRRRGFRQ

[7] = target: Delta-type opioid receptor (Homo sapiens, UniProt P41143)
[8] = target: T3, Muscarinic acetylcholine receptor M2 (Homo sapiens, UniProt P08172); assay type: functional, cell-based
T3 sequence (P08172 whole entry): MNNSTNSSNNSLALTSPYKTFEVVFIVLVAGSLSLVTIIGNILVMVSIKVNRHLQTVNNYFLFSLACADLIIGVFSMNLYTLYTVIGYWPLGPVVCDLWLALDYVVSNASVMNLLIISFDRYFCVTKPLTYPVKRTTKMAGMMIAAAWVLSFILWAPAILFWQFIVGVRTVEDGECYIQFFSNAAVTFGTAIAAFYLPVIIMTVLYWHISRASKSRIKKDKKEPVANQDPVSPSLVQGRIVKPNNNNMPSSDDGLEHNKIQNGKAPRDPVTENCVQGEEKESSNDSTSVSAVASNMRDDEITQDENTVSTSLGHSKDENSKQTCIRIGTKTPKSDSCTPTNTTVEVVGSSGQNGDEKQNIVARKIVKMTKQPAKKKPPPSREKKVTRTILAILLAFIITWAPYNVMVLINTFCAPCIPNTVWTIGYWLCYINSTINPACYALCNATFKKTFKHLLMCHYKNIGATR

[9] = target: Sodium-dependent noradrenaline transporter (Homo sapiens, UniProt P23975)
[10] = target: Gamma-aminobutyric acid receptor subunit alpha-1 (Rattus norvegicus, UniProt P62813); assay type: functional
[11] = target: T4, Cholecystokinin receptor type A (Homo sapiens, UniProt P32238)
T4 sequence (P32238 whole entry): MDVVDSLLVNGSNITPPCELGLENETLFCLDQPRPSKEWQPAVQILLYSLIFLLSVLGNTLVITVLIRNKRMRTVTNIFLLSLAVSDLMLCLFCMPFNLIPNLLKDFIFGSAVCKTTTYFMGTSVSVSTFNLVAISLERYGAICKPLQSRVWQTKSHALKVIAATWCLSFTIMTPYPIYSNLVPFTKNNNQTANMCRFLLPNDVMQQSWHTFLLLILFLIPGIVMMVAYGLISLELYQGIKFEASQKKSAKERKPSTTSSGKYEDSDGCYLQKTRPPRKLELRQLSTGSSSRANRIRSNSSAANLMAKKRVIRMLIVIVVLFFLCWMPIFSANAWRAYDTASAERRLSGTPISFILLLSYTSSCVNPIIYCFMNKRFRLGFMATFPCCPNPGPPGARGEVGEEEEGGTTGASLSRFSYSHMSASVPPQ

[12] = target: cGMP-inhibited 3',5'-cyclic phosphodiesterase 3A (Homo sapiens, UniProt Q14432); assay type: functional
[13] = target: Bile salt export pump (Homo sapiens, UniProt O95342); assay type: functional
[14] = target: Beta-1 adrenergic receptor (Homo sapiens, UniProt P08588); assay type: functional
[15] = target: T3, Muscarinic acetylcholine receptor M2; assay type: functional, cell-based; remark: listed apart in the source
Also: assay procedure not described here.

Sequence of Bile salt export pump (O95342 whole entry): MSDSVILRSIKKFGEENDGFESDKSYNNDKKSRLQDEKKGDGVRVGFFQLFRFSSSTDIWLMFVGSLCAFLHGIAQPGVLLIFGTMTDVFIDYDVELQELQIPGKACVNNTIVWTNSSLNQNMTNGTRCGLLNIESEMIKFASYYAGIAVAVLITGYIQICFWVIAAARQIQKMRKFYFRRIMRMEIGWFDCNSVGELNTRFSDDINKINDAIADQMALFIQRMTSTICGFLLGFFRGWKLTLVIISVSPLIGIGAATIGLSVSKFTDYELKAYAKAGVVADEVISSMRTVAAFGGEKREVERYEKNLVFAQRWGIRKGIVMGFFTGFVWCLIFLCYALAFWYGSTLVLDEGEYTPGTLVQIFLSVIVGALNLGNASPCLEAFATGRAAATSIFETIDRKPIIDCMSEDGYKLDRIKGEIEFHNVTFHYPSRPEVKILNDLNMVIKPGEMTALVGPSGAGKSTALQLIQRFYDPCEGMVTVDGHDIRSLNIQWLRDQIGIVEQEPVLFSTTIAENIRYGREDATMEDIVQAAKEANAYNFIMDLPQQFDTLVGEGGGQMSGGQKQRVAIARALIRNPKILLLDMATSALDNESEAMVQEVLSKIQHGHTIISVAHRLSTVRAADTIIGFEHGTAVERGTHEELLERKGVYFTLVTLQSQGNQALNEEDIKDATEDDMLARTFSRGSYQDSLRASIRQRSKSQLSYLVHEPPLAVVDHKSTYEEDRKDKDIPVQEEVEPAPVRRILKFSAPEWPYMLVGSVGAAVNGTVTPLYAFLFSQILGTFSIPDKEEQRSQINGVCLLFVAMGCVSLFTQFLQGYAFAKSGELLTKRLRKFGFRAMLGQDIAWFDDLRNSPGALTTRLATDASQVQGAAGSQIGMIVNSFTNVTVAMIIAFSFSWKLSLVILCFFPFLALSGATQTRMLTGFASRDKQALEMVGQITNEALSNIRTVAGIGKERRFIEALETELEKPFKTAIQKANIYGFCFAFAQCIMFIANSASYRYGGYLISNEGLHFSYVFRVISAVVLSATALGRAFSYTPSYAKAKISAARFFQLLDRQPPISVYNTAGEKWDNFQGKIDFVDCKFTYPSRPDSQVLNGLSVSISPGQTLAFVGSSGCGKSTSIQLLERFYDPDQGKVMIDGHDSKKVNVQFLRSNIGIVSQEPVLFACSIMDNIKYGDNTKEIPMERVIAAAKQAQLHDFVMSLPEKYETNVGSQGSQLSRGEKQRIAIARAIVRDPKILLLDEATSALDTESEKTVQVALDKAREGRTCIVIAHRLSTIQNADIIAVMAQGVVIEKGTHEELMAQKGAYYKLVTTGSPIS
Sequence of Growth hormone secretagogue receptor type 1 (Q92847 whole entry): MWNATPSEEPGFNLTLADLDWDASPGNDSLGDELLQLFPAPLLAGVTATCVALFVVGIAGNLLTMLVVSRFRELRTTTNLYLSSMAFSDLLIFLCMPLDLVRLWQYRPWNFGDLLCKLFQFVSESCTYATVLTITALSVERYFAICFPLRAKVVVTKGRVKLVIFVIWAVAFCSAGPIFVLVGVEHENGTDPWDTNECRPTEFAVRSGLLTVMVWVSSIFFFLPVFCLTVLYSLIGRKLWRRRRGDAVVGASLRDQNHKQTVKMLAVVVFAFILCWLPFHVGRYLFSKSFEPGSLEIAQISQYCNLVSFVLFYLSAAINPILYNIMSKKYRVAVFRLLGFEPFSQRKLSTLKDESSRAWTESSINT
Sequence of D(3) dopamine receptor (P35462 whole entry): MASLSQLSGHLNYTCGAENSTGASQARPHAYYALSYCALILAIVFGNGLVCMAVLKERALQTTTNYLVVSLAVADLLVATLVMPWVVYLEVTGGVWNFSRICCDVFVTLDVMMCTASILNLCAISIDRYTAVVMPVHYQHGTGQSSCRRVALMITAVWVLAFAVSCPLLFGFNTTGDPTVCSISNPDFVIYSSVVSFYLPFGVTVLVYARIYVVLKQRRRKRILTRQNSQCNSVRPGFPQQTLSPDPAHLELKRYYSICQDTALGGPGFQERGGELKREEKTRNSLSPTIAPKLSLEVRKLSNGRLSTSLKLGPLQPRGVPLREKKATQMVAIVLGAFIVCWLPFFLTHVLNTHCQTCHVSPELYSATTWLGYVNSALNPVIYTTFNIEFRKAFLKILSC
Sequence of Beta-1 adrenergic receptor (P08588 whole entry): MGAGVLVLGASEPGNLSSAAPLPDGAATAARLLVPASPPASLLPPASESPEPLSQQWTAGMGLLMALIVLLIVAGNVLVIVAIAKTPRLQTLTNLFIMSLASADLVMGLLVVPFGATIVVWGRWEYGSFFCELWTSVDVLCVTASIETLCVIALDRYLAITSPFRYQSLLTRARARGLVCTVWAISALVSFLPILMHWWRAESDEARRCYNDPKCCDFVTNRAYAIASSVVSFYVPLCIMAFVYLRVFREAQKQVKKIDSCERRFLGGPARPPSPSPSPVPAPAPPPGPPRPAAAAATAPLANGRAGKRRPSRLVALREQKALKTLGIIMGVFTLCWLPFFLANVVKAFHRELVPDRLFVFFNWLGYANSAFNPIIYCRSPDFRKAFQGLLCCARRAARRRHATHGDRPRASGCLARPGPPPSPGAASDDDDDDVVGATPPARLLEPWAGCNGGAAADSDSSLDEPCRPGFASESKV
Sequence of 5-hydroxytryptamine receptor 2B (P41595 whole entry): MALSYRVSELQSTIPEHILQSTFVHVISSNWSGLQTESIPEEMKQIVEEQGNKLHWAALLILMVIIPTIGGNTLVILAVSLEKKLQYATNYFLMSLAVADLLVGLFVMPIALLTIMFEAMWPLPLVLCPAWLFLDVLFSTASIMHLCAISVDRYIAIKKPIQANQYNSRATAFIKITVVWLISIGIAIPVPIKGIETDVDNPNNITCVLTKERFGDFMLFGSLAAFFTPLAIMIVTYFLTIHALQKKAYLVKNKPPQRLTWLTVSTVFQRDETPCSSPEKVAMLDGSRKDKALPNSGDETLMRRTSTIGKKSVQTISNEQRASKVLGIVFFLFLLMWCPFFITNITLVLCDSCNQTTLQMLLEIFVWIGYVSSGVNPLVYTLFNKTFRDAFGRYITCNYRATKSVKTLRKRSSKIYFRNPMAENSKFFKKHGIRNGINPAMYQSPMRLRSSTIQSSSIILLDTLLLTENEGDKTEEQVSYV
Sequence of cGMP-inhibited 3',5'-cyclic phosphodiesterase 3A (Q14432 whole entry): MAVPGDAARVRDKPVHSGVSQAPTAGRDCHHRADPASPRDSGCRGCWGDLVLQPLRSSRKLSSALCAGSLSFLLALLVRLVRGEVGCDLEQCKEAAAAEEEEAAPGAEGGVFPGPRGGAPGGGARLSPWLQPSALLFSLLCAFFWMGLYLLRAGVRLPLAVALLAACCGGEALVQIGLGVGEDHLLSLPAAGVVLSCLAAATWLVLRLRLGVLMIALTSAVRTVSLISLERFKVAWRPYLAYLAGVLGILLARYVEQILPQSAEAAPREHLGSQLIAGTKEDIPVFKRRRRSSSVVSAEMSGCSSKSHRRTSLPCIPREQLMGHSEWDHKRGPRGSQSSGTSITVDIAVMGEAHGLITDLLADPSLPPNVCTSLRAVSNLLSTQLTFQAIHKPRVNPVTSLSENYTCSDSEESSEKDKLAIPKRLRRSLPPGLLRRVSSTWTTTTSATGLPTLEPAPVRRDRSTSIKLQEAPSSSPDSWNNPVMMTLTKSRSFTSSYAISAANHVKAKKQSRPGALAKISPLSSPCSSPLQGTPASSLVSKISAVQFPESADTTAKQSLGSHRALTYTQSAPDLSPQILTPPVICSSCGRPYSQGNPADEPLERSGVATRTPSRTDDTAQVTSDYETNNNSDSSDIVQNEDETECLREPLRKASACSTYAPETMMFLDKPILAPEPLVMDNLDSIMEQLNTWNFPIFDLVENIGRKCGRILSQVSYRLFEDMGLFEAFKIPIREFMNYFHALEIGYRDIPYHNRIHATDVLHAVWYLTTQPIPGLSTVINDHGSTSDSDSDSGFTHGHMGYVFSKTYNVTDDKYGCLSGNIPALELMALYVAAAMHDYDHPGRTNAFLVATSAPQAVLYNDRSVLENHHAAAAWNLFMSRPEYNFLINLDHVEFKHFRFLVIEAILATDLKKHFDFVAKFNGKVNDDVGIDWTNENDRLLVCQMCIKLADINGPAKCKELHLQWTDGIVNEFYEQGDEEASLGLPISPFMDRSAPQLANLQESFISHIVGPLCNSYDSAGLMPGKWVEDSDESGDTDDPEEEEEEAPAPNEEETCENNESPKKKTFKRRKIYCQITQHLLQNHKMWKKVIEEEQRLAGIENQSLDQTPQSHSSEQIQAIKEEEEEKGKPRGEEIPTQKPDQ
Sequence of Gamma-aminobutyric acid receptor subunit alpha-1 (P62813 whole entry): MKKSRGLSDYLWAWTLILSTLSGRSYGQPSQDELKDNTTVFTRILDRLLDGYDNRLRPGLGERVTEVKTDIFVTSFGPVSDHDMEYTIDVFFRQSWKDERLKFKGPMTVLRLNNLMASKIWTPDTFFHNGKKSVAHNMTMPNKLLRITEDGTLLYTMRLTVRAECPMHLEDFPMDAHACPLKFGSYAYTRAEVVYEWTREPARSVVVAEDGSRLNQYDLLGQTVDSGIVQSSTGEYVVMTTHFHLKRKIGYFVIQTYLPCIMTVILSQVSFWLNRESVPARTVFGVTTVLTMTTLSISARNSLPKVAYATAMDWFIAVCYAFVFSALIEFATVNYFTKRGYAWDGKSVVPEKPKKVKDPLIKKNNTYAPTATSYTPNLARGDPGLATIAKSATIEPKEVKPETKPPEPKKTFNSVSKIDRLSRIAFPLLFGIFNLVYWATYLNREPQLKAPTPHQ
Sequence of Delta-type opioid receptor (P41143 whole entry): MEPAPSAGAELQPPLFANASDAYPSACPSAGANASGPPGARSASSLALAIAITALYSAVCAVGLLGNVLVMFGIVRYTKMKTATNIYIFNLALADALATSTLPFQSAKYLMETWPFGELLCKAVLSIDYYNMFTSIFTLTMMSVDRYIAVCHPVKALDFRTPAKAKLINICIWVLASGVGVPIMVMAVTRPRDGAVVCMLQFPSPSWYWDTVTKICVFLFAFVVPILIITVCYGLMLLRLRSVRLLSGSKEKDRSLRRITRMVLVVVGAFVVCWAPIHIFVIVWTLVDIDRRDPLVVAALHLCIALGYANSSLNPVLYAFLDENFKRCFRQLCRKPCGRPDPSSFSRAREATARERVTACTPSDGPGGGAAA

| Compound | AC50 [1] [µM] | AC50 [2] [µM] | AC50 [3] [µM] | AC50 [4] [µM] | AC50 [5] [µM] | AC50 [6] [µM] | AC50 [7] [µM] | AC50 [8] [µM] | AC50 [9] [µM] | AC50 [10] [µM] | AC50 [11] [µM] | AC50 [12] [µM] | AC50 [13] [µM] | AC50 [14] [µM] | AC50 [15] [µM] |
| --- | --- | --- | --- | --- | --- | --- | --- | --- | --- | --- | --- | --- | --- | --- | --- |
| Cc1cn([C@H]2C[C@H](N=[N+]=[N-])[C@@H](CO)O2)c(=O)[nH]c1=O [ZIDOVUDINE] | > 30 | > 10 | > 10 | > 30 | > 10 | > 10 | > 30 | > 10 | > 10 | > 10 | > 30 | > 30 | > 300 | > 10 | > 10 |
| O=C1Nc2ccc(Cl)cc2[C@@](C#CC2CC2)(C(F)(F)F)O1 [EFAVIRENZ] | > 30 | > 30 | > 30 | 5.61 | > 10 | > 30 | > 30 | > 10 | 15 | > 10 | > 30 | 24 | 110 | 19 | > 10 |
| Nc1ccn([C@H]2CC[C@@H](CO)O2)c(=O)n1 [ZALCITABINE] | > 10 | > 10 | > 10 | > 30 | > 10 | > 10 | > 30 | > 10 | > 10 | > 10 | > 10 | > 30 | > 300 | > 10 | > 10 |
| c1ccc([C@H]2CN3CCSC3=N2)cc1 [LEVAMISOLE] | > 30 | > 30 | > 30 | > 30 | > 30 | > 30 | > 30 | > 30 | > 30 | > 30 | > 30 | > 30 | > 300 | > 30 | > 30 |
| O=C(O[C@H]1C[C@H]2CC[C@@H](C1)[N+]21CCCC1)C(O)(c1ccccc1)c1ccccc1 [TROSPIUM] | > 30 | > 30 | > 30 | > 30 | > 30 | > 30 | > 30 | 0.0061 | > 30 | > 30 | > 30 | > 30 | > 300 | > 30 | > 30 |
| CC[C@H]1[C@@H](O)[C@@H]2[C@H](CC[C@]3(C)[C@@H]([C@H](C)CCC(=O)O)CC[C@@H]23)[C@@]2(C)CC[C@@H](O)C[C@@H]12 [OBETICHOLIC ACID] | > 30 | > 30 | > 30 | > 30 | > 30 | > 30 | > 30 | 16 | > 30 | > 30 | > 30 | > 30 | > 300 | > 30 | > 30 |
| COCCCN1CCC(NC(=O)c2cc(Cl)c(N)c3c2OCC3)CC1 [PRUCALOPRIDE] | > 30 | > 30 | > 30 | > 30 | > 30 | 14 | > 30 | > 30 | > 30 | > 30 | > 30 | > 30 | > 300 | > 30 | > 30 |
| O=C(OCC(O)CO)c1ccccc1Nc1ccnc2cc(Cl)ccc12 (stereo not given) [GLAFENINE] | > 30 | > 30 | > 30 | > 30 | > 30 | > 30 | > 30 | > 10 | > 30 | 0.046 | > 30 | > 30 | 15 | > 30 | > 10 |
| N[C@@H]1[C@H]2CN(c3nc4c(cc3F)c(=O)c(C(=O)O)cn4-c3ccc(F)cc3F)C[C@@H]12 [TROVAFLOXACIN] | > 30 | > 30 | > 30 | > 30 | > 30 | > 30 | > 30 | > 30 | > 30 | > 30 | > 30 | > 30 | > 300 | > 30 | > 30 |
| Cc1cn([C@H]2C=C[C@@H](CO)O2)c(=O)[nH]c1=O [STAVUDINE] | > 30 | > 10 | > 10 | > 30 | > 10 | > 10 | > 10 | > 10 | > 10 | > 10 | > 30 | > 30 | > 300 | > 10 | > 10 |
| NCC(CC(=O)O)c1ccc(Cl)cc1 (stereo not given) [BACLOFEN] | > 30 | > 30 | > 30 | > 30 | > 30 | > 30 | > 30 | > 30 | > 30 | > 30 | > 30 | > 30 | > 300 | > 30 | > 30 |
| CN(C)CCC=C1c2ccccc2C(C)(C)c2ccccc21 | 22 | 1.89 | > 30 | 5.8 | > 30 | 9.67 | > 30 | 0.25 | 1.05 | > 30 | > 30 | > 30 | 130 | 5.2 | > 10 |
| CC(=O)Nc1ccc(O)cc1 [ACETAMINOPHEN] | > 30 | > 30 | > 30 | > 30 | > 30 | > 30 | > 30 | > 30 | > 30 | > 30 | > 30 | > 30 | > 300 | > 30 | > 30 |
| CC1(C)NC(=O)N(c2ccc([N+](=O)[O-])c(C(F)(F)F)c2)C1=O [NILUTAMIDE] | > 30 | > 30 | > 30 | > 30 | > 30 | > 30 | > 30 | > 30 | > 30 | > 30 | > 30 | > 30 | > 300 | > 30 | > 30 |
